The text below walks through data of BindingDB's records for PubMed 34147747 (n/a, 2021).

pKi: −log10 of the molar value.

The target of experiment [1] is corticotropin-releasing factor receptor (rat). As to the kind of experiment: Binding affinity to rat CRF receptor assessed as inhibition constant.
Experiment [2] can be described thus: Binding affinity to CRF (unknown origin) receptor assessed as inhibition constant.

A word on the pKi: it is the Ki on a negative log10 scale, so that one unit is a factor of ten. On to `CCCC(C)c1c(CC)nn2c(-c3cc(OC)c(OC)cc3Cl)nc(C)nc12` (stereo not given), for which the pKi in experiment [1] was 8.59.

`CCCC(COC)c1c(CC)nn2c(-c3cc(OC)c(OC)cc3Cl)nc(C)nc12` (stereo not given): the pKi in experiment [1] was 8.70.

With `CCCC(CCC)c1c(CC)nn2c(-c3ccc(Cl)cc3Cl)nc(C)nc12`, the pKi in experiment [1] was 9.00.

On to `CCCC(COC)c1c(CC)nn2c(-c3ccc(Cl)cc3Cl)nc(C)nc12` (stereo not given), for which the pKi in experiment [1] was 8.85.

Take `CCCC(CCC)c1c(CC)nn2c(-c3cc(OC)c(OC)cc3Cl)nc(C)nc12`: the pKi in experiment [2] is 9.15.
